# Assay results published in US20110086035A1, “IMMUNOTHERAPEUTIC METHODS AND MOLECULES” (priority 2008, published 2011).
# Read-outs that look alike come from different tables or passages of the source.
# B1: recombinant Asp f1-H136L protein: FLAG-tagged recombinant A. fumigatus Asp f1 ribotoxin with point mutation His136Leu, without leader sequence (protein, UniProt P67875 28-176, looked up, variant H136L)
# Ribonuclease mitogillin: ATWTCINQQLNPKTNKWEDKRLLYSQAKAESNSHHAPLSDGKTGSSYPHWFTNGYDGNGKLIKGRTPIKFGKADCDRPPKHSQNGMGKDDHYLLEFPTFPDGHDYKFDSKKPKEDPGPARVIYTYPNKVFCGIVALQRGNQGDLRLCSH
# modifications: FLAG tag
# What was measured:
# [1] = system: HLA-DRB1*04; experiment: Binding to HLA-DRB1*04; set-up: species or system human
# Source text: Whether or not a peptide binds to HLA-DRB1*04 may be determined using any method known in the art. A suitable method is shown in Example 1, with particular reference to FIG. 2B. One method is to introduce the peptide into PBMCs taken from an HLA-DRB1*04 human and determine whether an activating or proliferative response is obtained which is indicative of binding. Binding to HLA-DRB1*04 may also be assessed using the methods described in FIGS. 7 and 8.
# (§1) Using limiting dilution, individual T cell clones were generated. Following expansion, the clones were either left un-stimulated, stimulated with FHT peptide or stimulated with HLA restricted FHT loaded LCL. IFNg production was then measured in a standard ELISA.
# [2] = system: FHT-specific CD4+ T cell clones; experiment: Restimulation of FHT-specific CD4+ T cell clones with antigen-loaded dendritic cells, IFN-γ ELISA; type: cell-based, human
# Method: For generation of antigen-specific T cell clones PBMC were stimulated repeatedly with 1 μg/ml FHT peptide once weekly for 4 weeks. Subsequently T cell clones were generated by limiting dilution in 96-well plates and expanded using the rapid expansion protocol as described by Beck et al^14. A CMVpp65-specific CD4^+ T cell clone used in control experiments was generated accordingly by limiting dilution of T cells stimulated with pp65 peptide antigen (kindly provided by Jan Diekmann).
# (§2) Dendritic cells (DC) were generated from monocytes by addition of 500 U/ml GM-CSF (PromoCell, Heidelberg, Germany) and 700 U/ml IL-4 (R&D systems, Wiesbaden-Nordenstadt, Germany) to the culture medium. Immature dendritic cells were incubated for 24 hours with either live A. fumigatus or C. albicans conidia or fungus killed by treatment with ethanol 0, 4, 8 or 12 hours after germination and subsequently co-incubated, with Aspergillus peptide-specific T cell clones for further 24 hours. Dendritic cells used for presentation of protein or peptide antigen were induced to mature by addition of 25 ng/ml TNF-α, 5 ng/ml IL-1β, 10 ng/ml IL-6 (all R&D systems, Wiesbaden-Nordenstadt, Germany) and 1 μg/ml PGE2 (Pharmacia, Ratingen, Germany) prior to antigen-pulsing and co-incubation with antigen-specific T cells. […]
# [3] = system: A. fumigatus conidia; experiment: Confrontation assay: killing of A. fumigatus conidia by monocytes pre-incubated with T cell supernatant; type: cell-based, Aspergillus fumigatus; settings: monocytes pre-incubated with supernatant of T cell clones activated with FHT peptide-pulsed APC; 3 hours; FIG. 5
# Method: as §2, with “cells. In one experiment the antigen-presenting dendritic cells fed with live Aspergillus conidia were incubated with either 25 μg/ml control antibody or MHC class II blocking antibody (No 555556, BD Biosciences, Heidelberg, Germany) for 1 hour prior to addition of the T cells. Antibody also remained present during the 24 hours co-incubation of T cells with antigen-presenting DC.” for “cells.”
# Killing of A. fumigatus conidia by monocytes was quantified using confrontation assays. […] Each experimental setting was determined in quadruple. […] Colonies were quantified after incubation at 37° C. over night. […]
# [4] = system: Asp f16-specific T cell lines of HLA-DRB1*04-positive donors; experiment: Restimulation of Asp f16-specific T cell lines with peptide-pulsed autologous monocytes, IFN-γ ELISA; type: cell-based, human; settings: T cell lines of 3 HLA-DRB1*04-positive donors; monocytes pulsed with 1 μg/ml peptide; 24 h; FIG. 2B
# Method: (§3) Antigen-specific T cell lines were generated by incubation of 1×10^7 whole PBMC per well in 6-well cell culture plates with 5 μg/ml recombinant protein or 1 μg/ml peptide antigen for 7 days. Lymphocyte cultures were supplemented with 5 U/ml IL-2 (Proleukin, Chiron, Ratingen, Germany) every other day and culture medium replenished as needed.
# (§4) Autologous monocytes were isolated from whole PBMC by allowing cells to adhere to tissue culture dishes for 2 hours and subsequent extensive washing to remove non-adherent cells. For presentation of protein antigen, monocytes were cultured overnight in the presence of 5 μg/ml recombinant protein and harvested by mechanical abrasion the next day. For presentation of peptide antigen, monocytes were incubated overnight without antigen and mature cells harvested and pulsed with 1 μg/ml peptide antigen for 1 hour. Transduced autologous B cells were used as antigen-presenting cells (APC) after repeated culture on gamma-irradiated human CD40L-transfected feeder cells. […]
# (§5) In order to define a common MHC class II epitope of the Asp f16 protein, lymphocyte donors were screened for the expression of the most abundant MHC class II allele HLA-DRB1*04 and Asp f16-specific T cell lines generated as described. […] All T cell cultures were then exposed to both peptide and recombinant protein for 24 hours and IFN-γ production quantified.
# [5] = system: T cell clones; experiment: IFNg ELISA of T cell clones stimulated with FHT peptide or FHT loaded HLA restricted LCL; type: cell-based, human; settings: in all but one of the clones; FIG. 8
# Method: FIG. 8. […] Using limiting dilution, individual T cell clones were generated. Following expansion, the clones were either left un-stimulated, stimulated with FHT peptide or stimulated with HLA restricted FHT loaded LCL. IFNg production was then measured in a standard ELISA.
# as §1
# [6] = system: PBMC from HLA-DRB1*04-positive donors; experiment: Criss-cross restimulation of T cell lines generated with FHT peptide or recombinant Asp f16 protein, IFN-γ; type: cell-based, human; settings: lines generated for one week with peptide or protein, exposed to both for 24 hours; FIG. 2C
# Method: as §3, §4, §5
# [7] = system: T cells specific for FHT; experiment: DRB1*0401/FHT multimer staining of FHT-expanded cell lines; type: cell-based, human; settings: PBMC of 3 donors (two DRB1*0401, one DRB1*0408) expanded 14 or 21 days; FHT bound to multimer of DRB1*0401; FIG. 7
# Source text: FIG. 7. Cell lines expanded using the FHT peptide contain T cells that bind specifically to the FHT peptide in the context of DRB1*0401. PBMC from 3 different donors were expanded with the FHT peptide for 14 or 21 days (IVS—In vitro stimulation). Two of the donors were DRB1*0401 positive and one was DRB1*0408 positive.
# PBMC from 3 different donors were expanded with the FHT peptide for 14 or 21 days (IVS—In vitro stimulation). Two of the donors were DRB1*0401 positive and one was DRB1*0408 positive.
# [8] = system: PBMC from healthy donors; experiment: Restimulation of T cell lines generated with recombinant protein, IFN-γ ELISA; type: cell-based, human; settings: PBMC of 4 healthy donors; significant = at least 50 pg/ml and/or more than 5-fold increase over unstimulated; FIG. 1A/1B
# Method: Blood was obtained from HLA-DRB1*-typed healthy donors after informed consent. Peripheral blood mononuclear cells (PBMC) were isolated via centrifugation in Biocoll Separating Solution (Biochrom, Berlin, Germany) and either used directly after preparation or cryopreserved for later use. Cells were cultured in RPMI 1640 with L-Glutamine (Invitrogen, Karlsruhe, Germany), supplemented with 10% heat-inactivated, pooled human serum and 100 U/ml Penicillin-Streptomycin (Invitrogen, Karlsruhe, Germany).
# as §3
# Autologous monocytes were isolated from whole PBMC by allowing cells to adhere to tissue culture dishes for 2 hours and subsequent extensive washing to remove non-adherent cells. […]
# PBMC from 4 different healthy donors, were stimulated for 7 days with purified recombinant Asp f1-H136L or Asp f16 protein. The generated T cell lines were then re-exposed for 24 hours to both proteins and the amount of secreted IFN-γ quantified in the supernatant by IFN-γ ELISA. […]
# [9] = system: phoenix GALV; type: cell-based, human; settings: point mutation His136Leu versus Asp f1
# Source text: The gene encoding the A. fumigatus Asp f16 protein (NCBI accession number AY169706) was cloned into the eukaryotic expression vector pcDNA3.1-TOPO (Invitrogen, Karlsruhe, Germany) with N- and C-terminal FLAG®-Tag (Sigma-Aldrich, Muenchen, Germany). The gene was amplified from cDNA kindly provided by Utz Reichard (University of Goettingen, Germany). The gene encoding Asp f1 protein (NCBI accession number M83781) was cloned accordingly, omitting the leader sequence (cDNA kindly provided by Prof. Dr. Stefan Stevanović, University of Tuebingen, Germany).
# pcDNA3.1-aspf16-FLAG and pcDNA3.1-aspf1-H136L-FLAG expression vector was introduced into the transgenic human cell line phoenix GALV^20 via calcium phosphate transfection. Parental as well as transfected producer cells were cultivated in DMEM medium (Invitrogen, Karlsruhe, Germany) supplemented with 10% heat-inactivated fetal calf serum (FCS, Biochrom, Berlin, Germany) and 100 U/ml Penicillin-Streptomycin (Invitrogen, Karlsruhe, Germany). 24 hours after transfection transgene expression from the CMV promoter of the expression vector was enhanced by addition of 1 mM sodium butyrate (Sigma-Aldrich, Muenchen, Germany) to the culture medium^21.
# Recombinant Asp f1 and Asp f16 proteins were produced in a eukaryotic expression system and purified by standard methods via introduced FLAG-Tags. […]
molecule,measurement,setting,value
FHTYTIDWTKDAVTW [FHT peptide],binding to HLA-DRB1*04,[1],has been shown to bind to HLA-DRB1*04
same,binding to HLA-DRB1*04,[1]; listed as FHT,specifically binds HLADRB1*04
same,IFN-γ production of FHT-specific CD4+ T cell clones in response to DC,"[2]; autologous DC pulsed with synthetic peptide, 24 h, FIG. 3A",high amounts of IFN-γ
same,fungal survival after phagocytosis by monocytes,[3],significantly reduce fungal survival
same,IFN-γ production in response to peptide,[4],abundant production of IFN-γ
same,IFNg production with FHT loaded HLA restricted LCL compared to peptide alone,[5],greatly increased specific cytokine production
same,specific cytokine (IFN-γ) production after restimulation with peptide and recombinant protein,[6],specific cytokine production could be detected
same,detection of FHT specific T cells by multimer staining,[7],can be detected by DRB1*0401/FHT multimer staining
B1,cross-reactivity of Asp f16-specific CD4+ TH1 T cell clones to pulsed APC,[2]; APC pulsed with purified protein,not cross-reactive
same,IFN-γ after one week of stimulation and 24 h re-exposure to recombinant protein,[8],only one of 4 donors responded robustly
same,cytotoxicity in the producing cell line,[9],nearly abolished cytotoxicity
